In US4656288A, “Antibiotics, their production and use” (Takeda Chemical Industries, Ltd., priority 1984, dated 1987):
In brackets after ≈: the same amount, converted by molar mass. Structures can show the parent of a compound that is named as a salt.

Key:
Escherichia coli PG 8 = assay: Inhibition zone against test microorganism without addition of β-lactamase; assay type: cell-based; conditions: test microorganism Escherichia coli PG 8; no β-lactamase added
Penicillinase = biological target: T1, Penicillinase (Bacillus cereus, UniProt P10424); assay: Stability against β-lactamase (penicillinase), test microorganism Escherichia coli PG 8; assay type: biochemical; conditions: Penicillinase derived from Bacillus cereus, -- = No inhibition zone indicated
T1 construct: purchased Calbio Chemical Co. of U.S.A
Excerpt: *^1 Derived from Bacillus cereus, produced by Calbio Chemical Co. of […]

Solubility = assay type: physicochemical
[1] = test system: Acinetobacter calcoaceticus IFO 13006; assay: Antimicrobial spectrum, minimal inhibitory concentration; assay type: cell-based; conditions: IFO13006, Bacto Antibiotic Medium 3 / yeast extract / agar medium, about 10^6 colony forming units/ml
Method: (§1) (Note 1): As the culture medium, there was used a medium consisting of
(§2) 17.5 g of Bacto Antibiotic Medium 3 (produced by Difco Laboratories of
(§3) U.S.A.), 5.0 g of Bacto Yeast extract (produced by Difco Laboratories of
(§4) U.S.A.), […] of Bacto Agar (produced by Difco Laboratories of U.S.A.)
(§5) and 1000 ml of distilled water (without adjustment of pH), while as the
(§6) bacterial inoculation solution, there was used about 10^6 colony
(§7) 17.5 g of Bacto Antibiotic Medium 3 (produced by Difco Laboratories,
(§8) U.S.A.), […] of Bacto Yeast extract (produced by Difco Laboratories,
(§9) U.S.A.), 20 g of Bacto Agar (produced by Difco Laboratories, U.S.A.) and
(§10) 1000 ml of distilled water (without adjustment of pH), while as the
(§11) bacterial inoculation solution, there was employed about 10^6 colony

[2] = test system: Alcaligenes faecalis IFO 13111; assay: as above; assay type: cell-based; conditions: IFO13111, Bacto Antibiotic Medium 3 / yeast extract / agar medium, about 10^6 colony forming units/ml
Method: as §1, §2, §3, §4, §5, §6, §7, §8, §9, §10, §11

Bacillus cereus FDA 5 = assay: as above; assay type: cell-based; conditions: FDA5, Bacto Antibiotic Medium 3 / yeast extract / agar medium, about 10^6 colony forming units/ml
Method: as §1, §2, §3, §4, §5, §6, §7, §8, §9, §10, §11

[3] = test system: Bacillus subtilis NIHJ PCI 219; assay: as above; assay type: cell-based; conditions: Bacto Antibiotic Medium 3 / yeast extract / agar medium, about 10^6 colony forming units/ml
Method: as §1, §2, §3, §4, §5, §6, §7, §8, §9, §10, §11

[4] = test system: Citrobacter freundii IFO 12681; assay: as above; assay type: cell-based; conditions: IFO12681, Bacto Antibiotic Medium 3 / yeast extract / agar medium, about 10^6 colony forming units/ml
Method: as §1, §2, §3, §4, §5, §6, §7, §8, §9, §10, §11

[5] = test system: Escherichia coli NIHJ JC 2; assay: as above; assay type: cell-based; conditions: NIHJJC2, Bacto Antibiotic Medium 3 / yeast extract / agar medium, about 10^6 colony forming units/ml
Method: as §1, §2, §3, §4, §5, §6, §7, §8, §9, §10, §11

[6] = test system: Klebsiella pneumoniae IFO 3317; assay: as above; assay type: cell-based; conditions: IFO3317, Bacto Antibiotic Medium 3 / yeast extract / agar medium, about 10^6 colony forming units/ml
Method: as §1, §2, §3, §4, §5, §6, §7, §8, §9, §10, §11

[7] = test system: Micrococcus luteus IFO 12708; assay: as above; assay type: cell-based; conditions: IFO12708, Bacto Antibiotic Medium 3 / yeast extract / agar medium, about 10^6 colony forming units/ml
Method: as §1, §2, §3, §4, §5, §6, §7, §8, §9, §10, §11

[8] = test system: Proteus mirabilis ATCC 21100; assay: as above; assay type: cell-based; conditions: ATCC21100, Bacto Antibiotic Medium 3 / yeast extract / agar medium, about 10^6 colony forming units/ml
Method: as §1, §2, §3, §4, §5, §6, §7, §8, §9, §10, §11

[9] = test system: Proteus morganii IFO 3168; assay: as above; assay type: cell-based; conditions: Morganella morganii, IFO3168, Bacto Antibiotic Medium 3 / yeast extract / agar medium, about 10^6 colony forming units/ml
Method: as §1, §2, §3, §4, §5, §6, §7, §8, §9, §10, §11

[10] = test system: Proteus vulgaris IFO 3988; assay: as above; assay type: cell-based; conditions: IFO3988, Bacto Antibiotic Medium 3 / yeast extract / agar medium, about 10^6 colony forming units/ml
Method: as §1, §2, §3, §4, §5, §6, §7, §8, §9, §10, §11

[11] = test system: Pseudomonas aeruginosa IFO 3080; assay: as above; assay type: cell-based; conditions: IFO3080, Bacto Antibiotic Medium 3 / yeast extract / agar medium, about 10^6 colony forming units/ml
Method: as §1, §2, §3, §4, §5, §6, §7, §8, §9, §10, §11

[12] = test system: Salmonella typhimurium IFO 12529; assay: as above; assay type: cell-based; conditions: Salmonella enterica, Bacto Antibiotic Medium 3 / yeast extract / agar medium, about 10^6 colony forming units/ml
Method: as §1, §2, §3, §4, §5, §6, §7, §8, §9, §10, §11

[13] = test system: Serratia marcescens IFO 12648; assay: as above; assay type: cell-based; conditions: IFO12648, Bacto Antibiotic Medium 3 / yeast extract / agar medium, about 10^6 colony forming units/ml
Method: as §1, §2, §3, §4, §5, §6, §7, §8, §9, §10, §11

[14] = test system: Staphylococcus aureus FDA 209P; assay: as above; assay type: cell-based; conditions: FDA209P, Bacto Antibiotic Medium 3 / yeast extract / agar medium, about 10^6 colony forming units/ml
Method: as §1, §2, §3, §4, §5, §6, §7, §8, §9, §10, §11

Cephalosporinase = Cephalosporinase (Enterobacter cloacae, UniProt P05364); assay: Stability against β-lactamase (cephalosporinase), test microorganism Escherichia coli PG 8; assay type: biochemical; conditions: Cephalosporinase derived from Enterobacter cloacae, -- = No inhibition zone indicated
Excerpt: *^2 Derived from Enterobacter cloacae.
*^3 No inhibition zone indicated.

[15] = test system: Staphylococcus aureus 308A-1; assay: Therapeutic effect in the experimental mouse infection; assay type: in vivo; conditions: 308A1, sc, Staphylococcus aureus 308A-1, route of administration Subcutaneous
Acute toxicity = assay type: in vivo; conditions: administered subcutaneously at a dose of 400 mg/kf
[16] = Stability in an aqueous solution; assay type: physicochemical
[17] = Interconversion of HPLC peaks A and B on standing in buffers; assay type: physicochemical; conditions: buffers of pH 3, 5 and 7 at room temperature
Excerpt: TAN-588 as obtained in this manner has two peaks on the reverse-phase HPLC. These peaks are temporarily referred to as A and B, respectively, whereby the phenomena to be described in the following are observed. […] Therefore, it is thought impossible to separate TAN-588 itself into A and B by means of the presently known separation techniques. However, the conversion of TAN-588 into the p-nitrobenzyl ester or benzhydryl derivative makes it possible for such a compound to be separated into the A type and B type of the compound, respectively.

T1 sequence (P10424 44-306): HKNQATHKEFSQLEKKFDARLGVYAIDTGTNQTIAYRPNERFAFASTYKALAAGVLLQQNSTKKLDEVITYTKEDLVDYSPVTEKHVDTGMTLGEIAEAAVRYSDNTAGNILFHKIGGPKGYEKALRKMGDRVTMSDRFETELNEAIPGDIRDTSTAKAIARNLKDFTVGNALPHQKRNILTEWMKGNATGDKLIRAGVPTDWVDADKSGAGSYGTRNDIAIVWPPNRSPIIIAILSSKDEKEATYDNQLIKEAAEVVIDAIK
Cephalosporinase, sequence (P05364 21-381): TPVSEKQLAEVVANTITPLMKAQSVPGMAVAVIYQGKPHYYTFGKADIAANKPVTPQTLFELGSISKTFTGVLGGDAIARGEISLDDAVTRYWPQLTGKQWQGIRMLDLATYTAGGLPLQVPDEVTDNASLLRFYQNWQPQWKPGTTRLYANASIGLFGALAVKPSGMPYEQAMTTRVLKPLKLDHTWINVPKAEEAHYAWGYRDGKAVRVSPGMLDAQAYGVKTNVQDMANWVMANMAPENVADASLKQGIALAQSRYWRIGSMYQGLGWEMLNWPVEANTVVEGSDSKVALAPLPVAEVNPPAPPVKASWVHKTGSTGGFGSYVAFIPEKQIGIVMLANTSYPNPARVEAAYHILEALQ

CO[C@@]1(NC(=O)CCC[C@@H](N)C(=O)O)C(=O)N2C(C(=O)O)=C(COC(N)=O)CS[C@@H]21 [CMC, reference compound]
inhibition zone, β-Lactamase: Without addition (Escherichia coli PG 8): 34 | inhibition zone, β-Lactamase: Penicillinase (Penicillinase): 34

N[C@H]1CON([C@]2(C(=O)O)CCC(=O)O2)C1=O [N-deacetyl TAN-588 (A type compound)]
Solubility in chloroform (Solubility): Sparingly soluble | Solubility in diethyl ether (Solubility): Sparingly soluble | Solubility in dimethylsulfoxide (Solubility): Sparingly soluble | Solubility in ethyl acetate (Solubility): Sparingly soluble | Solubility in water (Solubility): Soluble

N[C@H]1CON([C@@]2(C(=O)O)CCC(=O)O2)C1=O [N-deacetyl TAN-588 (B type compound)]
Solubility in chloroform (Solubility): Sparingly soluble | Solubility in diethyl ether (Solubility): Sparingly soluble | Solubility in dimethylsulfoxide (Solubility): Sparingly soluble | Solubility in ethyl acetate (Solubility): Sparingly soluble | Solubility in water (Solubility): Soluble

N[C@H]1CON(C2(C(=O)O)CCC(=O)O2)C1=O (stereo partly shown) [N-deacetyl TAN-588]
MIC [1]: 50 µg/mL (≈ 217 µM) | MIC [2]: 100 µg/mL (≈ 434 µM) | MIC (Bacillus cereus FDA 5): 50 µg/mL (≈ 217 µM) | MIC [3]: 12.5 µg/mL (≈ 54.3 µM) | MIC [4]: 50 µg/mL (≈ 217 µM) | MIC [5]: 25 µg/mL (≈ 109 µM) | MIC [6]: 100 µg/mL (≈ 434 µM) | MIC [7]: 6.25 µg/mL (≈ 27.2 µM) | MIC [8]: 100 µg/mL (≈ 434 µM) | MIC [9]: > 100 µg/mL | MIC [10]: 100 µg/mL (≈ 434 µM) | MIC [11]: 50 µg/mL (≈ 217 µM) | MIC [12]: 50 µg/mL (≈ 217 µM) | MIC [13]: 25 µg/mL (≈ 109 µM) | MIC [14]: 50 µg/mL (≈ 217 µM) | inhibition zone, β-Lactamase: Without addition (Escherichia coli PG 8): 22.5 | inhibition zone, β-Lactamase: Penicillinase (Penicillinase): 24.5 | inhibition zone, β-Lactamase: Cephalosporinase (Cephalosporinase): 21.5 | Solubility in diethyl ether (Solubility): Sparingly soluble | Solubility in dimethylsulfoxide (Solubility): Sparingly soluble | Solubility in ethyl acetate (Solubility): Sparingly soluble | Solubility in water (Solubility): Soluble

CC1(C)S[C@@H]2[C@H](NC(=O)Cc3ccccc3)C(=O)N2[C@H]1C(=O)O [PCG]
inhibition zone, β-Lactamase: Without addition (Escherichia coli PG 8): 22

CC(=O)N[C@H]1CON(C2(C(=O)O)CCC(=O)O2)C1=O (stereo partly shown) [TAN-588 sodium salt]
MIC [1]: 25 µg/mL | MIC [2]: 50 µg/mL | MIC (Bacillus cereus FDA 5): 12.5 µg/mL | MIC [3]: 3.13 µg/mL | MIC [4]: 100 µg/mL | MIC [5]: 50 µg/mL | MIC [6]: 100 µg/mL | MIC [7]: 0.39 µg/mL | MIC [8]: 25 µg/mL | MIC [9]: 100 µg/mL | MIC [10]: 25 µg/mL | MIC [11]: > 100 µg/mL | MIC [12]: 50 µg/mL | MIC [13]: 50 µg/mL | MIC [14]: 3.13 µg/mL | ED50 [15]: 25 mg/kg | acute toxicity (Acute toxicity): no acute toxicity | Solubility in chloroform (Solubility): Sparingly soluble | Solubility in diethyl ether (Solubility): Sparingly soluble | Solubility in dimethylsulfoxide (Solubility): Soluble | Solubility in ethyl acetate (Solubility): Sparingly soluble | Solubility in water (Solubility): Soluble | Stability in an aqueous solution ([16]; pH 3 and 7): slightly stable | Stability in an aqueous solution ([16]; pH 5): Stable | Stability in an aqueous solution ([16]; pH 9): unstable

CC(=O)N[C@H]1CON(C2(C(=O)O)CCC(=O)O2)C1=O (stereo partly shown) [TAN-588]
interconversion of isolated peaks A and B [17]: A turns into B, with B turning into A, about one hour later at any pH values
